Laboratory results published in PubChem BioAssay AID330 (DTP/NCI, 2004).
“And” between values parts separate entries of the source, which are not always exact repeats. Equal entries are not always repeated. Inconclusive results and toxic doses are left out. How the source made its calls: active means survival T/C of 150% or more; inactive means T/C below 125% in these data.

Test system: P388 leukemia ip, CD2F1 mice, survival T/C
Test: NCI In Vivo Anticancer Drug Screen. Data for tumor model P388 Leukemia (intraperitoneal) in CD2F1 (CDF1) mice
Details: endpoint: median survival time, higher = longer survival
How it was run: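 Mice carrying the transplanted tumor received test compound or vehicle. Survival was recorded in each group, and the value is the treated-group measurement divided by that of the vehicle-treated control group.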

[1] = dose: 100.0 mg/kg/injection, schedule: Q01DX009 (ip), vehicle: saline
[2] = dose: 50.0 mg/kg/injection, schedule: Q01DX009 (ip), vehicle: Klucel (hydroxypropylcellulose) (HPC)
[3] = dose: 100.0 mg/kg/injection, schedule: Q01DX009 (ip), vehicle: Klucel (hydroxypropylcellulose) (HPC)
[4] = dose: 100.0 mg/kg/injection, schedule: Q04DX003 (ip), vehicle: Klucel (hydroxypropylcellulose) (HPC)
[5] = dose: 200.0 mg/kg/injection, schedule: Q04DX003 (ip), vehicle: Klucel (hydroxypropylcellulose) (HPC)
[6] = dose: 100.0 mg/kg/injection, schedule: Q01DX001 (ip), vehicle: saline with Tween-80
[7] = dose: 200.0 mg/kg/injection, schedule: Q01DX001 (ip), vehicle: saline with Tween-80
[8] = dose: 400.0 mg/kg/injection, schedule: Q01DX001 (ip), vehicle: saline with Tween-80
[9] = dose: 60.0 mg/kg/injection, schedule: Q01DX005 (ip), vehicle: saline
[10] = dose: 120.0 mg/kg/injection, schedule: Q01DX005 (ip), vehicle: saline
[11] = dose: 240.0 mg/kg/injection, schedule: Q01DX005 (ip), vehicle: saline
[12] = dose: 200.0 mg/kg/injection, schedule: Q01DX009 (ip), vehicle: Klucel (hydroxypropylcellulose) (HPC)
[13] = dose: 60.0 mg/kg/injection, schedule: Q01DX005 (ip), vehicle: saline with Tween-80
[14] = dose: 60.0 mg/kg/injection, schedule: Q01DX005 (ip), vehicle: Klucel (hydroxypropylcellulose) (HPC)
[15] = dose: 120.0 mg/kg/injection, schedule: Q01DX005 (ip), vehicle: Klucel (hydroxypropylcellulose) (HPC)
[16] = dose: 1.56 mg/kg/injection, schedule: Q01DX009 (ip), vehicle: saline

Measured: T/C

CC(Cc1ccc(O)c(O)c1)C(C)Cc1ccc(O)c(O)c1 (stereo not given)
inactive: [1] 98 % of control and 106 % of control | dose: 200.0 mg/kg/injection, schedule: Q01DX009 (ip), vehicle: saline 101 % of control and 102 % of control | dose: 400.0 mg/kg/injection, schedule: Q01DX009 (ip), vehicle: saline 105 % of control and 94 % of control | dose: 600.0 mg/kg/injection, schedule: Q01DX009 (ip), vehicle: saline 98 % of control and 90 % of control

COc1ccc(C(=O)N2C(=O)CCC2=O)cc1
inactive: [2] 109 % of control | [3] 115 % of control | [4] 113 % of control | [5] 113 % of control | dose: 400.0 mg/kg/injection, schedule: Q04DX003 (ip), vehicle: Klucel (hydroxypropylcellulose) (HPC) 114 % of control

COC(=O)c1c(-c2ccccc2)c(-c2ccccc2)nn(-c2ccccc2)c1=O
inactive: dose: 50.0 mg/kg/injection, schedule: Q01DX001 (ip), vehicle: saline with Tween-80 100 % of control and 102 % of control | [6] 99 % of control and 100 % of control | [7] 92 % of control and 97 % of control | [8] 87 % of control and 90 % of control

CC1CN(C(=O)OCC23COC4(C)CCC(C)(OC2)N34)CC(C)O1 (stereo not given)
inactive: dose: 50.0 mg/kg/injection, schedule: Q01DX005 (ip), vehicle: saline 100 % of control | dose: 100.0 mg/kg/injection, schedule: Q01DX005 (ip), vehicle: saline 100 % of control | dose: 200.0 mg/kg/injection, schedule: Q01DX005 (ip), vehicle: saline 100 % of control

CC1=NNC(=O)CC1C(O)c1ccccc1 (stereo not given)
inactive: [9] 114 % of control | [10] 101 % of control | [11] 107 % of control

CC(=O)OCC1(C)ON=C2CCCCC21 (stereo not given)
inactive: [6] 94 % of control | [7] 104 % of control | [8] 94 % of control

COC(=O)C1(CC(=O)c2ccncc2)NC(=S)NC(=O)C1C#N (stereo not given)
inactive: [9] 99 % of control | [10] 101 % of control | [11] 94 % of control

C=CCCCCC1CC2CCCCN2O1 (stereo not given)
inactive: [2] 94 % of control | [3] 103 % of control | [12] 113 % of control

CN1C(=O)C(O)N=C(c2ccccc2)c2cc(Cl)ccc21 (stereo not given)
inactive: dose: 50.0 mg/kg/injection, schedule: Q01DX009 (ip), vehicle: saline with Tween-80 101 % of control | dose: 100.0 mg/kg/injection, schedule: Q01DX009 (ip), vehicle: saline with Tween-80 105 % of control | dose: 200.0 mg/kg/injection, schedule: Q01DX009 (ip), vehicle: saline with Tween-80 117 % of control

NCCCCCC(CCN)SCC1OC(n2cnc3c(N)ncnc32)C(O)C1O (stereo not given)
inactive: dose: 15.0 mg/kg/injection, schedule: Q01DX005 (ip), vehicle: saline with Tween-80 109 % of control | dose: 30.0 mg/kg/injection, schedule: Q01DX005 (ip), vehicle: saline with Tween-80 103 % of control | [13] 96 % of control

COc1cccc(/C=N/N(C)c2c([N+](=O)[O-])cc(C(F)(F)F)cc2[N+](=O)[O-])c1O
inactive: [14] 93 % of control | [15] 92 % of control | dose: 240.0 mg/kg/injection, schedule: Q01DX005 (ip), vehicle: Klucel (hydroxypropylcellulose) (HPC) 87 % of control

CCOC(=O)/C=C(\Cl)C(=O)OCC
inactive: dose: 1.56 mg/kg/injection, schedule: Q01DX009 (ip), vehicle: saline with Tween-80 95 % of control | [16] 101 % of control | dose: 3.13 mg/kg/injection, schedule: Q01DX009 (ip), vehicle: saline with Tween-80 104 % of control and 110 % of control | dose: 3.13 mg/kg/injection, schedule: Q01DX009 (ip), vehicle: saline 103 % of control | dose: 6.25 mg/kg/injection, schedule: Q01DX009 (ip), vehicle: saline with Tween-80 111 % of control and 123 % of control | dose: 6.25 mg/kg/injection, schedule: Q01DX009 (ip), vehicle: saline 112 % of control | dose: 12.5 mg/kg/injection, schedule: Q01DX009 (ip), vehicle: saline with Tween-80 111 % of control | dose: 12.5 mg/kg/injection, schedule: Q01DX009 (ip), vehicle: saline 118 % of control

COC1(OC)C(C)C(C#N)(C#N)C1(OC)OC (stereo not given)
inactive: [14] 100 % of control | [15] 106 % of control

Brc1ccc(-c2nc3sc(-c4ccc5c(c4)OCO5)nn3c2Br)cc1
inactive: [13] 100 % of control | dose: 120.0 mg/kg/injection, schedule: Q01DX005 (ip), vehicle: saline with Tween-80 100 % of control | dose: 240.0 mg/kg/injection, schedule: Q01DX005 (ip), vehicle: saline with Tween-80 93 % of control

C[CH](C)[Sn](=[O])[CH](C)C
inactive: dose: 0.78 mg/kg/injection, schedule: Q01DX009 (ip), vehicle: saline 113 % of control | [16] 106 % of control | dose: 3.12 mg/kg/injection, schedule: Q01DX009 (ip), vehicle: saline 107 % of control

CC1=CC(=O)c2c(O)cccc2C1=O
inactive: dose: 2.0 mg/kg/injection, schedule: Q01DX009 (ip), vehicle: Klucel (hydroxypropylcellulose) (HPC) 108 % of control | dose: 2.0 mg/kg/injection, schedule: Q01DX009 (ip), vehicle: saline with Tween-80 110 % of control | dose: 4.0 mg/kg/injection, schedule: Q01DX009 (ip), vehicle: Klucel (hydroxypropylcellulose) (HPC) 113 % of control and 116 % of control | dose: 4.0 mg/kg/injection, schedule: Q01DX009 (ip), vehicle: saline with Tween-80 114 % of control | dose: 8.0 mg/kg/injection, schedule: Q01DX009 (ip), vehicle: Klucel (hydroxypropylcellulose) (HPC) 122 % of control

COc1ccccc1N=Nc1c(O)n(-c2ccccc2Cl)c(=S)n(-c2ccccc2OC)c1=O
inactive: dose: 50.0 mg/kg/injection, schedule: Q01DX001 (ip), vehicle: Klucel (hydroxypropylcellulose) (HPC) 102 % of control | dose: 100.0 mg/kg/injection, schedule: Q01DX001 (ip), vehicle: Klucel (hydroxypropylcellulose) (HPC) 102 % of control | dose: 200.0 mg/kg/injection, schedule: Q01DX001 (ip), vehicle: Klucel (hydroxypropylcellulose) (HPC) 101 % of control

COc1cc([C@@H]2c3cc4c(cc3[C@H](OC(=O)c3ccncc3)[C@H]3COC(=O)[C@H]23)OCO4)cc(OC)c1OC
inactive: dose: 6.25 mg/kg/injection, schedule: Q01DX005 (ip), vehicle: Klucel (hydroxypropylcellulose) (HPC) 101 % of control | dose: 12.5 mg/kg/injection, schedule: Q01DX005 (ip), vehicle: Klucel (hydroxypropylcellulose) (HPC) 104 % of control | dose: 25.0 mg/kg/injection, schedule: Q01DX005 (ip), vehicle: Klucel (hydroxypropylcellulose) (HPC) 118 % of control

C[C@H]1CCC/C=C/[C@@H]2C[C@H](O)C[C@H]2[C@H](O)/C=C/C(=O)O1
inactive: [4] 104 % of control | [5] 90 % of control

COc1cc(C(=O)O)on1
inactive: dose: 25.0 mg/kg/injection, schedule: Q01DX009 (ip), vehicle: saline 103 % of control | dose: 50.0 mg/kg/injection, schedule: Q01DX009 (ip), vehicle: saline 99 % of control | [1] 89 % of control and 96 % of control

O=C(c1ccc(O)cc1)c1ccc(C(=O)c2ccc(O)cc2)cc1
inactive: [2] 99 % of control | [3] 97 % of control | [12] 90 % of control

CC(=O)Nc1ccc(C(=O)O)c(O)c1.CC(=O)Nc1ccc(C(=O)O)c(O)c1.[Cu]
inactive: dose: 6.25 mg/kg/injection, schedule: Q01DX001 (ip), vehicle: saline 98 % of control | dose: 12.5 mg/kg/injection, schedule: Q01DX001 (ip), vehicle: saline 97 % of control | dose: 25.0 mg/kg/injection, schedule: Q01DX001 (ip), vehicle: saline 94 % of control
